{"source": "patent US7531500B2", "about": "“Preventing airway mucus production by administration of EGF-R antagonists” (The Regents of the University of California, priority 1998, dated 2009)", "key": {"NCI-H292 cells [1]": {"system": "NCI-H292 cells", "test": "Alcian blue/PAS staining of NCI-H292 cells for mucin glycoproteins", "format": "cell-based, human", "conditions": "TNFα 20 ng/ml; EGF, TGFα each 25 ng/ml", "procedure": "Cell culture. A human pulmonary mucoepidermoid carcinoma cell line, NCI-H292 cells, were grown in RPMI11640 medium containing 10% fetal bovine serum, penicillin (100 U/ml), streptomycin (100 μg/ml) at 37° C. in a humidified 5% CO2 water-jacketed incubator. […] In inhibition studies with an EGF-R tyrosine kinase inhibitor, BIBX1522 (10 μg/ml, generously provided by Boehringer Ingelheim Inc., Ingelheim, Germany), cells were pretreated with BIBX1522 30 min before adding growth factors. After incubation, cells grown in a T-75 flask were used for total RNA extraction or protein extraction, and 8-chamber slides were used for Alcian blue/PAS-staining to visualize mucins."}, "pathogen-free rats": {"system": "pathogen-free rats", "test": "Goblet cell production in pathogen-free rats after tracheal instillation of TNFα and EGF-R ligands", "format": "in vivo, rat", "procedure": "Healthy rats. Rats were anesthetized with methohexital sodium (Brevital sodium, 50 mg/kg, i.p.; Eli Lilly & Co., Indianapolis, Ind.) and allowed to breathe spontaneously. […] In each study, sterile PBS (100 μl) was instilled into the trachea as control. […] Rats were pretreated with BIBX1522 (3, 10 or 30 mg/kg, i.p.), 1 h before and 24 h after instillation of TGFα. The trachea and lungs were removed for examination 48 h after the instillation of TGFα.\nTissue preparation. At preselected times during anesthesia, the systemic circulation was perfused with 1% paraformaldehyde in DEPC-treated PBS at a pressure of 120 mmHg. The trachea was then removed and placed in 4% paraformaldehyde for 24 h. After fixation, trachea and lungs were embedded in either JB-4 plus monomer solution A for cell analysis or O.C.T. compound (Sakura Finetek U.S.A., Inc., Torrance, Calif.) for immunohistochemistry and in situ hybridization. The embedded tissues were cut as cross sections ([…] thick) and placed on slides.\nCell analysis. We counted the total number of epithelial cells by counting epithelial cell nuclei over 2 mm of the basal lamina with an oil immersion objective lens (×1000 magnification). The linear length of the basal lamina under each analyzed region of epithelium was determined by tracing the contour of the digitized image of the basal lamina. After instillation of stimuli, “developing” goblet cells form. These cells have Alcian blue/PAS-positive granules, but the size of granules is small, and the number of cytoplasmic granules is few. We call these “developing” goblet cells “pre-goblet cells”, a stage before cells become mature goblet cells. Goblet cells are tall, cuboidal, goblet to low columnar in shape, with abundant Alcian blue/PAS-stained granules filling most of the cytoplasm between the nucleus and the luminal surface. Pre-goblet cells are defined as cells with smaller mucus-stained areas (<1/3 height in epithelium from basement membrane to luminal surface) or with sparsely and lightly Alcian blue/PAS-stained, small granules. Ciliated cells are recognized by their ciliated borders, lightly stained cytoplasm, and large round nuclei. Non-granulated secretory cells are columnar in shape and extend from the lumen to the basal lamina. The cytoplasm stains light pink color, and a few tiny PAS-positive and Alcian blue-negative granules are observed in the cytoplasm. Basal cells are small flattened cells with a large nucleus, located just above the basal lamina but not reaching the airway lumen.\nQuantification of goblet cell production. Goblet cell production, was determined by the volume density of Alcian blue/PAS-stained mucosubstances on the mucosal surface epithelium using a semi-automatic imaging system described elsewhere (Weber et al. (1984) Science 224:294-297). We measured the Alcian blue/PAS-positive stained area and the total epithelial area and expressed the data as the percentage of the total area stained by Alcian blue-PAS. The analysis was performed with the public domain NIH Image program (developed at the U.S. National Institute of Health and available from the Internet by anonymous FTP from zippy.nimh.gov or on floppy disk from the National Technical Information Service, Springfield, Va., part number PB95-500195GEI).\nImmunohistochemical localization of EGF-R in rat epithelium. The localization of EGF-R was examined using immunchistochemical staining with an antibody to EGF-R (Calbiochem, San Diego, Calif.) in frozen sections of rat trachea. After perfusion with 1% paraformaldehyde in PBS, tissues were placed in 4% paraformaldehyde in PBS for 1 h and then removed in 30% sucrose for cryoprotection overnight. Tracheas were embedded in O.C.T. compound (Sakura Finetek U.S.A., Inc., Torrance, Calif.) and frozen. Frozen sections (5 μm) were cut and placed on glass slides (Superfrost Plus, Fisher Scientific, Pittsburgh, Pa.). Immunostaining was performed similarly to the in vitro studies."}, "NCI-H292 cells [2]": {"system": "NCI-H292 cells", "test": "In situ hybridization for MUC5AC gene in NCI-H292 cells (Example 2)", "format": "cell-based, human", "conditions": "within 12 h", "procedure": "Cell Culture. NCI-H292 cells, a human pulmonary mucoepidermoid carcinoma cell line, were grown in RPMI 1640 medium containing 10% fetal bovine serum, penicillin (100 U/ml), streptomycin (100 μg/ml) and Hepes (25 mM) at 37° C. in a humidified 5% CO2, water-jacketed incubator. Either 6-well culture plates or 8-chamber slides were used to culture the cells. When confluent, cells were incubated for 1 h with neutrophils (10^6 cells/ml) alone, TNFα alone (recombinant human TNFα, 20 ng/ml, Genzyme, Cambridge, Mass.), IL-8 (recombinant human IL-8, 10^−8 M, Genzyme) alone, fMLP (10^−8 M, Sigma, St. Louis, Mo.) alone, TNFα plus neutrophils, IL-8 plus neutrophils, fMLP plus neutrophils, hydrogen peroxide (H2O2, 200 μM), cigarette smoke solution or TGFα (recombinant human TGFα, 0.1-25 ng/ml, Calbiochem, San Diego, Calif.). The cells were then washed and incubated with fresh medium alone. Experiments were terminated at preselected times (for mRNA, 6 h and 12 h; for protein, 24 h). As controls, cells were incubated with medium alone for same time periods. […] NCI-H292 cells were incubated for 1 h with either neutrophils that had been incubated with TNFα (20 ng/ml) for 1 h and then washed with sterile PBS to avoid contamination with the supernatant (e.g., molecules released from neutrophils), or the NCI-H292 cells were incubated with supernatant only. […]"}}}
{"substance": "TGFα: transforming growth factor alpha, EGF-R ligand (recombinant human; rat synthetic in vivo)", "values": [{"measurement": "PAS-positive staining on incubation with mediator", "setting": "NCI-H292 cells [1]", "result": "increased PAS-positive staining"}, {"measurement": "Goblet cells in tracheal epithelium", "setting": "pathogen-free rats; TGFα 250 ng alone or 24 h after TNFα 200 ng, i.t., 48 h later, counted over 2 mm basal lamina, mean ± SEM, 5 rats", "result": "5.8 ± 1.2"}, {"measurement": "% of AB/PAS-stained area", "setting": "pathogen-free rats; as E9", "result": "6.8 ± 1.9", "unit": "%"}, {"measurement": "Basal cells in tracheal epithelium", "setting": "pathogen-free rats; as E9", "result": "56.8 ± 2.3"}, {"measurement": "Ciliated cells in tracheal epithelium", "setting": "pathogen-free rats; as E9", "result": "54.6 ± 2.3"}, {"measurement": "Indeterminate cells in tracheal epithelium", "setting": "pathogen-free rats; as E9", "result": "2.0 ± 0.4"}, {"measurement": "Pre-goblet cells in tracheal epithelium", "setting": "pathogen-free rats; as E9", "result": "12.8 ± 1.6"}, {"measurement": "Secretory cells in tracheal epithelium", "setting": "pathogen-free rats; as E9", "result": "72.2 ± 4.0"}, {"measurement": "Total cells in tracheal epithelium", "setting": "pathogen-free rats; as E9", "result": "204.2 ± 3.3"}, {"measurement": "MUC5AC gene expression", "setting": "NCI-H292 cells [2]", "result": "up-regulated"}]}
